The record followed here is ChEMBL document CHEMBL1201862, “PubChem BioAssay data set” (2004).

Test systems include CAKI-1; K562; U-251; HCT-116; SR; NCI-H522; SK-MEL-28; SNB-75; SF-295; SW-620; Malme-3M; CCRF-CEM; OVCAR-3; SK-MEL-2; UACC-62; HOP-62; NCI-H460; SN12C; HT-29; SK-OV-3.
Common to all, as to assay: NCI tumour cell line growth inhibition, 48 h

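Cultured in 96-well plates, cells were exposed to test compound for 48 hours across five concentrations. Abbreviation: GI50, concentration required for 50% inhibition of growth.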 Activity calls are given as the source filed them. Rule as the data show it: active = GI50 up to about 1.1 µM and inactive = higher.

Take `CCOC(=O)c1cc(C2(O)CCN(Cc3ccccc3)C2=O)c(-c2cc(C)no2)[nH]1` (configuration not stated): the GI50 in the experiment on CAKI-1 is 32.8 µM (inactive); in the experiment with K562 it was 27 µM (inactive); in the experiment on U-251, 44.7 µM (inactive); in the experiment with HCT-116, 37.9 µM (inactive); in the experiment with SR, 27.3 µM (inactive); with NCI-H522, 15.4 µM (inactive). Also, the GI50 with SK-MEL-28 is 59.6 µM (inactive); with SNB-75 it was 26.6 µM (inactive); in the experiment with SF-295, 25.6 µM (inactive); with SW-620, 47.1 µM (inactive); with Malme-3M, > 100 µM (inactive); in the experiment on CCRF-CEM it was 29 µM (inactive). Besides, the GI50 is 36.5 µM (inactive) with OVCAR-3; 48.8 µM (inactive) with SK-MEL-2; 47.8 µM (inactive) in the experiment with UACC-62; 64.7 µM (inactive) with HOP-62; 32.4 µM (inactive) with NCI-H460; 69 µM (inactive) in the experiment on SN12C.
As to `O=c1[nH]c(=O)n(COCc2ccccc2)c2ccsc12`, the GI50 with CAKI-1 was > 100 µM (inactive); in the experiment on K562, 59 µM (inactive); in the experiment on U-251 it was > 100 µM (inactive); with HCT-116, > 100 µM (inactive); in the experiment with SR, 88.7 µM (inactive); with NCI-H522 it was > 100 µM (inactive). Also, the GI50 with SK-MEL-28 is > 100 µM (inactive); in the experiment with SNB-75, 75 µM (inactive); in the experiment with HT-29 it was > 100 µM (inactive); in the experiment with SW-620, > 100 µM (inactive); in the experiment with Malme-3M it was > 100 µM (inactive); in the experiment on CCRF-CEM it was 60.4 µM (inactive). The GI50 is > 100 µM (inactive) in the experiment on SK-MEL-2, 96.4 µM (inactive) in the experiment with HOP-62, 55.8 µM (inactive) in the experiment on NCI-H460 and > 100 µM (inactive) in the experiment with SN12C.
For `CC(=O)Oc1cc(OC(C)=O)c2c(c1C)CC[C@@H]1[C@@H]2CC[C@]2(C)[C@@H](OC(C)=O)CC[C@@H]12`, the GI50 in the experiment with CAKI-1 was 24.5 µM (inactive); in the experiment with K562 it was 22 µM (inactive); in the experiment on U-251, 18 µM (inactive); in the experiment on HCT-116, 15.8 µM (inactive); in the experiment on SR it was 16.8 µM (inactive); in the experiment with NCI-H522 it was 16.7 µM (inactive). In addition, the GI50 in the experiment on SK-MEL-28 was 19 µM (inactive); in the experiment on SNB-75 it was 22.5 µM (inactive); in the experiment with SF-295, 23 µM (inactive); with HT-29, 15.8 µM (inactive); in the experiment on SW-620 it was 18.9 µM (inactive); in the experiment on Malme-3M, 15.6 µM (inactive). The GI50 was 17.5 µM (inactive) in the experiment with CCRF-CEM; 17.3 µM (inactive) in the experiment with OVCAR-3; 18.7 µM (inactive) in the experiment with UACC-62; 20.9 µM (inactive) in the experiment on HOP-62; 19.3 µM (inactive) in the experiment on NCI-H460; 17.5 µM (inactive) with SN12C.
As to `C(=C\Nc1ccc(-c2ccccc2)cc1)/C=N/c1ccc(-c2ccccc2)cc1`, the GI50 in the experiment on CAKI-1, in the experiment with K562, in the experiment on U-251, in the experiment with HCT-116, in the experiment on SR and in the experiment with NCI-H522 was > 100 µM (inactive) each time. Also, the GI50 with SK-MEL-28, in the experiment on SNB-75, with SF-295, in the experiment on HT-29, in the experiment on SK-OV-3 and in the experiment with SW-620 was > 100 µM (inactive) throughout. In addition, the GI50 with CCRF-CEM, with OVCAR-3, in the experiment with SK-MEL-2, in the experiment with UACC-62, in the experiment with HOP-62 and in the experiment with NCI-H460 was > 100 µM (inactive) in each case. For the same compound, the GI50 with SN12C was > 100 µM (inactive).
In the case of `NNC(=O)c1ccccc1NC(=O)/C(=C/c1ccccc1O)NC(=O)c1ccccc1`, the GI50 with CAKI-1 is 12.9 µM (inactive); with K562, > 100 µM (inactive); in the experiment with U-251 it was 33.6 µM (inactive); in the experiment with HCT-116 it was 88.3 µM (inactive); in the experiment with SR, 0.0156 µM (active); in the experiment on NCI-H522, 13.4 µM (inactive). The GI50 is > 100 µM (inactive) in the experiment with SK-MEL-28; 11.6 µM (inactive) in the experiment with SNB-75; 44.8 µM (inactive) in the experiment with SF-295; > 100 µM (inactive) in the experiment on HT-29; 39.7 µM (inactive) in the experiment on SK-OV-3; > 100 µM (inactive) with SW-620. The GI50 in the experiment with Malme-3M is 25.4 µM (inactive); with CCRF-CEM, > 100 µM (inactive); in the experiment with UACC-62, 67.1 µM (inactive); with NCI-H460, 22.8 µM (inactive); in the experiment on SN12C, 28 µM (inactive).
Consider `COc1ccc(C2C3CCc4ccccc4C3=NN2S(=O)(=O)c2ccc(/C=C/C(=O)O)cc2)cc1` (configuration not stated), for which the GI50 in the experiment on CAKI-1 is 8.93 µM (inactive); in the experiment with K562 it was 2.84 µM (inactive); in the experiment with U-251 it was 3.21 µM (inactive); with HCT-116 it was 3.53 µM (inactive); in the experiment on SR, 0.869 µM (active); with NCI-H522, 2.31 µM (inactive). Further, the GI50 is 2.93 µM (inactive) with SF-295; 3.33 µM (inactive) in the experiment on HT-29; 1.55 µM (inactive) in the experiment with SK-OV-3; 3.18 µM (inactive) with SW-620; 2.77 µM (inactive) with Malme-3M; 3.46 µM (inactive) in the experiment on CCRF-CEM. For the same compound, the GI50 in the experiment with OVCAR-3 was 3.99 µM (inactive); with SK-MEL-2, 2.71 µM (inactive); with UACC-62, 2.82 µM (inactive); in the experiment with HOP-62, 5.61 µM (inactive); with NCI-H460 it was 3.52 µM (inactive); with SN12C it was 6.25 µM (inactive).
In the case of `Cc1cc2c(cc1-c1cc3c(cc1C)C(C(C)C)=C(O)C(=O)/C3=C\Nc1ccccn1)/C(=C/Nc1ccccn1)C(=O)C(O)=C2C(C)C`, the GI50 was 45.8 µM (inactive) with CAKI-1; 31.8 µM (inactive) in the experiment with K562; 34.4 µM (inactive) with U-251; 64.7 µM (inactive) in the experiment with HCT-116; 42.7 µM (inactive) with SR; 21.8 µM (inactive) with NCI-H522. The GI50 is 58.2 µM (inactive) in the experiment with SK-MEL-28; 63.4 µM (inactive) with SNB-75; 49.9 µM (inactive) in the experiment on SF-295; 48 µM (inactive) in the experiment on SW-620; 21.6 µM (inactive) in the experiment with Malme-3M; 12.2 µM (inactive) in the experiment on CCRF-CEM. The GI50 is 34.3 µM (inactive) with OVCAR-3; 37.8 µM (inactive) in the experiment with SK-MEL-2; 65 µM (inactive) with UACC-62; 43.2 µM (inactive) in the experiment with NCI-H460; 74.6 µM (inactive) with SN12C.
Turning to `CC(C)NC(=O)OCc1nnn2c1C(OC(=O)NC(C)C)CC2` (configuration not stated), the GI50 in the experiment with CAKI-1, with K562, with U-251, in the experiment on HCT-116, in the experiment with SR and in the experiment on NCI-H522 was > 100 µM (inactive) in each case. The GI50 with SK-MEL-28, in the experiment on SNB-75, in the experiment on SF-295, in the experiment with HT-29, in the experiment on SK-OV-3 and with SW-620 was > 100 µM (inactive) throughout. The GI50 with Malme-3M, in the experiment on OVCAR-3, in the experiment on SK-MEL-2, in the experiment on UACC-62, in the experiment on NCI-H460 and in the experiment on SN12C was > 100 µM (inactive) throughout.
In the case of `OC(c1cccs1)c1cc2ccccc2s1` (configuration not stated), the GI50 in the experiment with CAKI-1, in the experiment on K562, in the experiment with U-251, in the experiment with HCT-116, with SR and in the experiment with NCI-H522 was > 10 µM (inactive) each time. The GI50 in the experiment on SK-MEL-28, in the experiment on SNB-75, in the experiment on SF-295, in the experiment with HT-29, with SK-OV-3 and in the experiment on SW-620 was > 10 µM (inactive) each time. Besides, the GI50 in the experiment with CCRF-CEM, in the experiment on OVCAR-3, with SK-MEL-2, in the experiment with UACC-62, in the experiment on HOP-62 and in the experiment on NCI-H460 was > 10 µM (inactive) each time. The GI50 in the experiment with SN12C is > 10 µM (inactive).
For the compound `CC(=O)OCC1OC(SC2=N/C(=C\c3ccc(Br)s3)C(=O)N2CN2CCOCC2)C(OC(C)=O)C(OC(C)=O)C1OC(C)=O` (configuration not stated), the GI50 with CAKI-1 was 17.9 µM (inactive); in the experiment with K562, 10.3 µM (inactive); in the experiment with U-251 it was 16.3 µM (inactive); with HCT-116, 13.9 µM (inactive); in the experiment on SR, 12.6 µM (inactive); in the experiment on NCI-H522 it was 6.87 µM (inactive). For the same compound, the GI50 with SK-MEL-28 is 15.7 µM (inactive); in the experiment with SNB-75, 25.4 µM (inactive); in the experiment with SF-295, 19.5 µM (inactive); with HT-29, 15.5 µM (inactive); in the experiment with SW-620 it was 14.9 µM (inactive); with Malme-3M, 16.5 µM (inactive). Also, the GI50 with OVCAR-3 was > 10 µM (inactive); in the experiment on SK-MEL-2, 0.383 µM (active); with UACC-62, 15.4 µM (inactive); in the experiment with HOP-62 it was 23 µM (inactive); with NCI-H460, 18.6 µM (inactive); in the experiment with SN12C it was 13.6 µM (inactive).
In the case of `O=C(c1cccs1)N1CCc2ccccc2C1`, the GI50 with CAKI-1 is > 100 µM (inactive); in the experiment on K562, 39.1 µM (inactive); with U-251, > 100 µM (inactive); in the experiment on HCT-116, 38.2 µM (inactive); in the experiment on SR, 97.5 µM (inactive); in the experiment with NCI-H522, > 100 µM (inactive). The GI50 in the experiment on SK-MEL-28, in the experiment with SF-295, in the experiment on HT-29, with SK-OV-3, in the experiment with SW-620 and in the experiment on Malme-3M was > 100 µM (inactive) each time. Also, the GI50 with CCRF-CEM was 40.4 µM (inactive); in the experiment with OVCAR-3, > 100 µM (inactive); with SK-MEL-2, > 100 µM (inactive); in the experiment on UACC-62 it was > 100 µM (inactive); in the experiment on HOP-62, > 100 µM (inactive); with NCI-H460 it was > 100 µM (inactive). In addition, the GI50 with SN12C was > 100 µM (inactive).
